Source: patent US8680269B2, “Pesticidal compositions” (Dow AgroSciences, LLC., priority 2009, dated 2014)

Experiments:
Format in all cases: in vivo
[1] = tested on: corn earworm (CEW; Helicoverpa zea); experiment: Insecticidal test for corn earworm, 128-well diet tray assay; details: 144 h, 50 μg/cm2 on artificial diet, second instar larvae, six days at 25° C.
Method in brief: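 Second-instar H. zea larvae, three to five per well, on artificial diet surface-treated with 50 μg/cm^2 compound (90:10 acetone-water, dried), eight wells per compound. Held 6 days at 25° C, 14:10 light-dark; percent mortality averaged over wells.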

[2] = tested on: beet armyworm (BAW; Spodoptera exigua); experiment: Insecticidal test for beet armyworm, 128-well diet tray assay; details: 144 h, 50 μg/cm2 on artificial diet, second instar larvae, six days at 25° C.
Method in brief: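 Second-instar larvae, three to five per well, fed on artificial diet surface-treated with 50 μg/cm^2 compound (applied in 90:10 acetone-water, dried). Held 6 days at 25 °C, 14:10 light-dark; percent mortality scored per well and averaged over eight wells.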

[3] = tested on: green peach aphid (Myzus persicae); experiment: Insecticidal test for green peach aphid in foliar spray assay; details: 72 h, 200 ppm foliar spray on cabbage seedlings, graded after three days, Abbott corrected % control, read-out: Mortality GPA 200 ppm
Experimental: Cabbage seedlings grown in 3-inch pots, with 2-3 small (3-5 cm) true leaves, were used as test substrate. The seedlings were infested with 20-50 green peach aphids (wingless adult and nymph) one day prior to chemical application. Four pots with individual seedlings were used for each treatment. Compounds (2 mg) were dissolved in 2 mL of acetone/methanol (1:1) solvent, forming stock solutions of 1000 ppm. The stock solutions were diluted 5× with 0.025% Tween 20 in H2O to obtain the test solution at 200 ppm. A hand-held Devilbiss sprayer was used for spraying a solution to both sides of cabbage leaves until runoff. Reference plants (solvent check) were sprayed with the diluent only. Treated plants were held in a holding room for three days at approximately 25° C. and 40% relative humidity (RH) prior to grading. Evaluation was conducted by counting the number of live aphids per plant under a microscope. Insecticidal activity data, measured by using Abbott's correction formula, are presented in Table 2: Corrected % Control=100*(X−Y)/X • where X=No. of live aphids on solvent check plants • Y=No. of live aphids on treated plants

Row | Compound | mortality at 50 µg/cm2 [1] [%] | mortality at 50 µg/cm2 [2] [%] | mortality at 200 ppm [3] [%]
1 | COc1ccc(NC(=S)N/N=C/c2ccc(-c3cn(-c4ccc(OC(F)(F)F)cc4)cn3)cc2)cc1 [Compound 67] | 50 to 100 | 50 to 100 | < 80
2 | FC(F)(F)Oc1ccc(-n2cnc(-c3ccc(/C=N/NC(=S)Nc4c(Cl)cccc4Cl)cc3)c2)cc1 [Compound 68] | 50 to 100 | 50 to 100 | < 80
3 | COc1ccc(NC(=S)N/N=C/c2ccc(-n3cnc(-c4ccc(C(F)(F)F)cc4)c3)cc2)cc1 [Compound 69] | 50 to 100 | 50 to 100 | < 80
4 | FC(F)(F)c1ccc(-c2cn(-c3ccc(/C=N/NC(=S)Nc4c(Cl)cccc4Cl)cc3)cn2)cc1 [Compound 70] | 50 to 100 | 50 to 100 | < 80
5 | Cc1ccccc1NC(=S)N/N=C/c1ccc(-c2ncn(-c3ccc(OC(F)(F)F)cc3)n2)cc1 [Compound 71] | 50 to 100 | 50 to 100 | < 80
6 | CCc1cccc(C)c1NC(=S)N/N=C/c1ccc(-c2ncn(-c3ccc(OC(F)(F)F)cc3)n2)cc1 [Compound 72] | 50 to 100 | 50 to 100 | < 80
7 | COc1cccc(C)c1NC(=S)N/N=C/c1ccc(-c2ncn(-c3ccc(OC(F)(F)F)cc3)n2)cc1 [Compound 73] | 50 to 100 | 50 to 100 | < 80
8 | COc1ccccc1NC(=S)N/N=C/c1ccc(-c2ncn(-c3ccc(OC(F)(F)F)cc3)n2)cc1 [Compound 74] | 50 to 100 | 50 to 100 | < 80
9 | CSc1ccccc1NC(=S)N/N=C/c1ccc(-c2ncn(-c3ccc(OC(F)(F)F)cc3)n2)cc1 [Compound 75] | 50 to 100 | 50 to 100 | < 80
10 | CCc1cccc(CC)c1NC(=S)N/N=C/c1ccc(-c2ncn(-c3ccc(OC(F)(F)F)cc3)n2)cc1 [Compound 76] | 50 to 100 | 50 to 100 | < 80
11 | CN(C)S(=O)(=O)c1ccccc1NC(=S)N/N=C/c1ccc(-c2ncn(-c3ccc(OC(F)(F)F)cc3)n2)cc1 [Compound 77] | 50 to 100 | 50 to 100 | < 80
12 | Cc1cccc(C)c1NC(=S)N/N=C/c1ccc(-c2ncn(-c3ccc(OC(F)(F)F)cc3)n2)cc1 [Compound 78] | 50 to 100 | 50 to 100 | < 80
13 | Nc1ccc(NC(=S)N/N=C/c2ccc(-c3ncn(-c4ccc(OC(F)(F)F)cc4)n3)cc2)cc1 [Compound 81] | 50 to 100 | 50 to 100 | < 80
14 | Cc1cccc(C)c1NC(=S)N/N=C/c1ccc(-c2ncn(-c3ccc(OC(F)(F)C(F)(F)F)cc3)n2)cc1 [Compound 97] | 50 to 100 | 50 to 100 | < 80
15 | COc1ccc(NC(=S)N/N=C(\C)c2ccc(-c3ncn(-c4ccc(OC(F)(F)F)cc4)n3)cc2)c(C)c1 [Compound 109] | 50 to 100 | 50 to 100 | < 80
16 | COc1ccc(NC(=O)N/N=C/c2ccc(-c3ncn(-c4ccc(OC(F)(F)F)cc4)n3)cc2)c(C)c1 [Compound 119] | 50 to 100 | 50 to 100 | < 80
17 | O=C(N/N=C/c1ccc(-c2ncn(-c3ccc(OC(F)(F)F)cc3)n2)cc1)Nc1c(Cl)cccc1Cl [Compound 120] | 50 to 100 | 50 to 100 | < 80
18 | COc1cc(C)c(NC(=S)N/N=C(\C)c2ccc(-c3ncn(-c4ccc(OC(F)(F)F)cc4)n3)cc2)c(C)c1 [Compound 125] | 50 to 100 | 50 to 100 | < 80
19 | C/C(=N\NC(=S)Nc1c(C)cccc1C)c1ccc(-c2ncn(-c3ccc(OC(F)(F)F)cc3)n2)cc1 [Compound 126] | 50 to 100 | 50 to 100 | < 80
20 | COc1cc(C)c(NC(=S)N/N=C/c2ccc(-c3ncn(-c4ccc(C(F)(F)F)cc4)n3)cc2)c(C)c1 [Compound 127] | 50 to 100 | 50 to 100 | < 80
21 | COc1cc(C)c(NC(=S)N/N=C/c2ccc(-c3ncn(-c4ccc(OC(F)(F)C(F)(F)F)cc4)n3)cc2)c(C)c1 [Compound 128] | 50 to 100 | 50 to 100 | < 80
22 | COc1cc(C)c(NC(=S)N/N=C/c2ccc(-c3ncn(-c4ccc(OC(F)(F)F)cc4)n3)cc2)c(C)n1 [Compound 129] | 50 to 100 | 50 to 100 | < 80
23 | COC(=O)C1CC(c2ccc(/C=N/NC(=S)Nc3c(C)cc(OC)cc3C)cc2)=NN1c1ccc(OC(F)(F)F)cc1 (stereo not drawn) [Compound 132] | 50 to 100 | 50 to 100 | < 80
24 | COc1cc(C)c(NC(=S)N/N=C/c2ccc(C3=NN(c4ccc(OC(F)(F)F)cc4)C(C(N)=O)C3)cc2)c(C)c1 (stereo not drawn) [Compound 133] | 50 to 100 | 50 to 100 | < 80
